Assays:
CYP19 (aromatase) = molecular target: T1, CYP19 (aromatase) (Homo sapiens, UniProt P11511); assay: Inhibition of human placental CYP19 at 500 nM; type: functional
T1 sequence (P11511 whole entry): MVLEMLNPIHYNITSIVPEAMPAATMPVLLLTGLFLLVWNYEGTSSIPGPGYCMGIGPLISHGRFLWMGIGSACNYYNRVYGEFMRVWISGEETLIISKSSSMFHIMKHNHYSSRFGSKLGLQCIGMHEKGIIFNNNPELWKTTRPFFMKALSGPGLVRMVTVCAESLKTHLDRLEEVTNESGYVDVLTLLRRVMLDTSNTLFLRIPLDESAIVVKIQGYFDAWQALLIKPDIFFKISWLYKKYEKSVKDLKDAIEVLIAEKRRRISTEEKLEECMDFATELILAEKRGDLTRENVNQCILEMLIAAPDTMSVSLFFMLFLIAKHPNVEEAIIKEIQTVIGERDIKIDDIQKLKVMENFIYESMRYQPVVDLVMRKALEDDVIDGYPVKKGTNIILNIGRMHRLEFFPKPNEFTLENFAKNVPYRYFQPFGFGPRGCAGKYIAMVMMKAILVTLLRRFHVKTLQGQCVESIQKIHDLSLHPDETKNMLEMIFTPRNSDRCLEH

CYP1A2 = molecular target: T2, CYP1A2 (Homo sapiens, UniProt P05177); assay: Inhibition of human recombinant CYP1A2 expressed in baculovirus-infected insect microsomes at 2 uM; type: ADME, Microsome
T2 sequence (P05177 whole entry): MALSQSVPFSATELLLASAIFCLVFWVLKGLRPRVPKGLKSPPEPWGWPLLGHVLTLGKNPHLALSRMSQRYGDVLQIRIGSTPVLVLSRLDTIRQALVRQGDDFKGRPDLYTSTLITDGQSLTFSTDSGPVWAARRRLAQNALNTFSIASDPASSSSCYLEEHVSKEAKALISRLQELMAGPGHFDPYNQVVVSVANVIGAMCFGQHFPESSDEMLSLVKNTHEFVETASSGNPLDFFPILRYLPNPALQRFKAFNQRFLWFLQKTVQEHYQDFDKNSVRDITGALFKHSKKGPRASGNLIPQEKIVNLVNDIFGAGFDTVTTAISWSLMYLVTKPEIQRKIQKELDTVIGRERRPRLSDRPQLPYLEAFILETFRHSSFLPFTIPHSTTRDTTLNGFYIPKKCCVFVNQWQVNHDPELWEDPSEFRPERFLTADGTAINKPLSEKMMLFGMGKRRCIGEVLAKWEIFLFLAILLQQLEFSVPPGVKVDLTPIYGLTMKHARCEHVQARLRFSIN

Cytochrome P450 2B6 = molecular target: T3, Cytochrome P450 2B6 (Homo sapiens, UniProt P20813); assay: Inhibition of human recombinant CYP2B6 expressed in baculovirus-infected insect microsomes; type: ADME, Microsome
T3 sequence (P20813 whole entry): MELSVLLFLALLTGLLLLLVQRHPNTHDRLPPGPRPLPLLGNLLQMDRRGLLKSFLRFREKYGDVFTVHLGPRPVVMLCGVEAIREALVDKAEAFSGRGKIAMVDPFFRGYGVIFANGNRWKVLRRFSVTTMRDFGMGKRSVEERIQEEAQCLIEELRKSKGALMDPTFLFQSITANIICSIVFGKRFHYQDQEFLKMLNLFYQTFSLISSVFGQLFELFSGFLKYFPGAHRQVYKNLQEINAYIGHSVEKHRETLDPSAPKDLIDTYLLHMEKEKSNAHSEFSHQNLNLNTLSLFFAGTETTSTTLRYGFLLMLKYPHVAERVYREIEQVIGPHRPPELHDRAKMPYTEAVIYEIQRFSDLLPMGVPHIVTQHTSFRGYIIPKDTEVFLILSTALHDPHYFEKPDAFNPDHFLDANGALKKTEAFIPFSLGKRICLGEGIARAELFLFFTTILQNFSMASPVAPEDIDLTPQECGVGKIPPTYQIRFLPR

Cytochrome P450 2C9 = Cytochrome P450 2C9 (Homo sapiens, UniProt P11712); assay: Inhibition of human recombinant CYP2C9 expressed in baculovirus-infected insect microsomes; type: ADME, Microsome
Cytochrome P450 2D6 = Cytochrome P450 2D6 (Homo sapiens, UniProt P10635); assay: Inhibition of human recombinant CYP2D6 expressed in baculovirus-infected insect microsomes; type: ADME, Microsome
Cytochrome P450 3A4 = Cytochrome P450 3A4 (Homo sapiens, UniProt P08684); assay: Inhibition of human recombinant CYP3A4 expressed in baculovirus-infected insect microsomes; type: ADME, Microsome
[1] = Protein binding in rat plasma at 3 uM after 1 hr; type: ADME, cell-free; settings: read-out: PPB (converted)
[2] = Protein binding in human plasma at 3 uM after 1 hr; type: ADME, cell-free; settings: read-out: PPB (converted)
[3] = Terminal half life in Wistar rat at 5 mg/kg, po by cassette dosing; type: ADME, organism-based; parameters: dose 5 mg/kg, route oral; settings: in vivo, read-out: beta t1/2 (converted)
[4] = Terminal half life in Wistar rat at 25 mg/kg, po; type: ADME, organism-based; parameters: dose 25 mg/kg, route oral; settings: in vivo, read-out: beta t1/2 (converted)
[5] = Terminal half life in Wistar rat at 1 mg/kg, iv; type: ADME, organism-based; parameters: dose 1 mg/kg, route intravenous; settings: in vivo, read-out: beta t1/2 (converted)
[6] = Tmax in Wistar rat at 5 mg/kg, po by cassette dosing; type: ADME, organism-based; parameters: dose 5 mg/kg, route oral; settings: in vivo
[7] = Tmax in Wistar rat at 25 mg/kg, po; type: ADME, organism-based; parameters: dose 25 mg/kg, route oral; settings: in vivo
[8] = Cmax in Wistar rat at 5 mg/kg, po by cassette dosing; type: ADME, organism-based; parameters: dose 5 mg/kg, route oral; settings: in vivo
[9] = Cmax in Wistar rat at 25 mg/kg, po; type: ADME, organism-based; parameters: dose 25 mg/kg, route oral; settings: in vivo
[10] = AUC (0 to infinity) in Wistar rat at 5 mg/kg, po by cassette dosing; type: ADME, organism-based; parameters: time infinity, dose 5 mg/kg, route oral; settings: plasma
[11] = AUC (0 to infinity) in Wistar rat at 25 mg/kg, po; type: ADME, organism-based; parameters: time infinity, dose 25 mg/kg, route oral; settings: plasma
[12] = AUC (0 to infinity) in Wistar rat at 1 mg/kg, iv; type: ADME, organism-based; parameters: time infinity, dose 1 mg/kg, route intravenous; settings: plasma
Cytochrome P450 1A2 = molecular target: T4, Cytochrome P450 1A2 (Homo sapiens, UniProt P05177)
T4 sequence (P05177 whole entry): T2 sequence (P05177 whole entry)

CYP17 = molecular target: T5, CYP17 (Homo sapiens, UniProt P05093); assay: in vitro; settings: human CYP17 expressed in Escherichia coli
T5 sequence (P05093 whole entry): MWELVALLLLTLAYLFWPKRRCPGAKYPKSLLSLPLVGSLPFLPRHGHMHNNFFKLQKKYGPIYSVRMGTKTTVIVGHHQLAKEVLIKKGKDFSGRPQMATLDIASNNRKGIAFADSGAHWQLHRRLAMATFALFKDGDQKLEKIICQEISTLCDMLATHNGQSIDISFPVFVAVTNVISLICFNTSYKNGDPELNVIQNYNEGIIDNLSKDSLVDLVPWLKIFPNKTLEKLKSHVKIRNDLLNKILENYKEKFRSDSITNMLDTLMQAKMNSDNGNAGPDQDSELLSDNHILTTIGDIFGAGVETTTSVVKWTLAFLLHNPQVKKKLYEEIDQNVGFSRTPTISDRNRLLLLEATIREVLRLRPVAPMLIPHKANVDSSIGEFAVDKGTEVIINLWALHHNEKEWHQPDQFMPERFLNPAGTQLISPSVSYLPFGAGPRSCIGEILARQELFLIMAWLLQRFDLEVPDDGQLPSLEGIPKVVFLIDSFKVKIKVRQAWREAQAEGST
Description: Inhibition of human CYP17 expressed in Escherichia coli at 2.5 uM

[13] = Oral bioavailability in Wistar rat at 25 mg/kg; settings: in vivo
Cytochrome P450 2C19 = Cytochrome P450 2C19 (Homo sapiens, UniProt P33261); assay: Inhibition of human recombinant CYP2C19 expressed in baculovirus-infected insect microsomes; type: ADME, Microsome; settings: read-out: IC50
Aromatase = molecular target: T6, Aromatase (Homo sapiens, UniProt P11511); assay: Inhibition of human placental CYP19; type: functional
T6 sequence (P11511 whole entry): T1 sequence (P11511 whole entry)

[14] = molecular target: T7, Cytochrome P450 11B2, mitochondrial (Homo sapiens, UniProt P19099)
T7 sequence (P19099 whole entry): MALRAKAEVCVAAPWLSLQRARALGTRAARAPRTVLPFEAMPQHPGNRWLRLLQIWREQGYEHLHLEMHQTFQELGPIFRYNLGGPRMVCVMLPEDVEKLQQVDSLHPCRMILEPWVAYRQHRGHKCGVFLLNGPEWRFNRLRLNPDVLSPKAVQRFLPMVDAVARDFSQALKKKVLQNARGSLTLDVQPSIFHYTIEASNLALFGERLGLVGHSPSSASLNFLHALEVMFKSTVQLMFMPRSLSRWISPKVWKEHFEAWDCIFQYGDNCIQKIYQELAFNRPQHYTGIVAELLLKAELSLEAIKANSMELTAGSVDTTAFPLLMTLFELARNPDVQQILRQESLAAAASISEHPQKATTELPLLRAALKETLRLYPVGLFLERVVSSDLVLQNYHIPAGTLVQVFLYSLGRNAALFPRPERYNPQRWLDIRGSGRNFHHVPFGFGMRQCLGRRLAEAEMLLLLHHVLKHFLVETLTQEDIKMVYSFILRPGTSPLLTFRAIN

[15] = molecular target: T8, Cytochrome P450 11B1, mitochondrial (Homo sapiens, UniProt P15538)
T8 sequence (P15538 whole entry): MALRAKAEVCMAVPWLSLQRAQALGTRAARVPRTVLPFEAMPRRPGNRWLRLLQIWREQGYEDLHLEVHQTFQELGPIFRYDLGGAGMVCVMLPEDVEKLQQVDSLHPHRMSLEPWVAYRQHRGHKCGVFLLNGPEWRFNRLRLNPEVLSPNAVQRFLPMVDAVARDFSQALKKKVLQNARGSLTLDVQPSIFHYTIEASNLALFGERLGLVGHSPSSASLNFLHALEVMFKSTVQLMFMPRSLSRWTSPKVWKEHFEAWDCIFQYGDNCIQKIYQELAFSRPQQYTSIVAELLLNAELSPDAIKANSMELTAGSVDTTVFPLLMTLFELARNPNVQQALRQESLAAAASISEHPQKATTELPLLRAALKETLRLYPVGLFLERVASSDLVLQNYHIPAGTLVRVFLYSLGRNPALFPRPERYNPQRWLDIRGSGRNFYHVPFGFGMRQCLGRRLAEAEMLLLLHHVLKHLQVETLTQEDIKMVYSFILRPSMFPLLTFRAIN

Sequence of Cytochrome P450 2C9 (P11712 whole entry): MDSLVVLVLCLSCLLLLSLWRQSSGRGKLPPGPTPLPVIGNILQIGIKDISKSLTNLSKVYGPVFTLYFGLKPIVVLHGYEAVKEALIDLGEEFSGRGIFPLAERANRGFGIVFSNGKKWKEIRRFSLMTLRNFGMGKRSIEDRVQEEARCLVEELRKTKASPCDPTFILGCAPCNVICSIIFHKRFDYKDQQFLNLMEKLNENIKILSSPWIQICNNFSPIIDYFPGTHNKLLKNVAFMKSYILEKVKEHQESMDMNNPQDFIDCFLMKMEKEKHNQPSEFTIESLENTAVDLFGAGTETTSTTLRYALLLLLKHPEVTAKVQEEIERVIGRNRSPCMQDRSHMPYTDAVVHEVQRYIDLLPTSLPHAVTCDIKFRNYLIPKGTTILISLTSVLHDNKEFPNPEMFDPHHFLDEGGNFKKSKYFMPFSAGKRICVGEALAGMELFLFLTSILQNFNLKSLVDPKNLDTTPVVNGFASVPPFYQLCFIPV
Sequence of Cytochrome P450 2D6 (P10635 whole entry): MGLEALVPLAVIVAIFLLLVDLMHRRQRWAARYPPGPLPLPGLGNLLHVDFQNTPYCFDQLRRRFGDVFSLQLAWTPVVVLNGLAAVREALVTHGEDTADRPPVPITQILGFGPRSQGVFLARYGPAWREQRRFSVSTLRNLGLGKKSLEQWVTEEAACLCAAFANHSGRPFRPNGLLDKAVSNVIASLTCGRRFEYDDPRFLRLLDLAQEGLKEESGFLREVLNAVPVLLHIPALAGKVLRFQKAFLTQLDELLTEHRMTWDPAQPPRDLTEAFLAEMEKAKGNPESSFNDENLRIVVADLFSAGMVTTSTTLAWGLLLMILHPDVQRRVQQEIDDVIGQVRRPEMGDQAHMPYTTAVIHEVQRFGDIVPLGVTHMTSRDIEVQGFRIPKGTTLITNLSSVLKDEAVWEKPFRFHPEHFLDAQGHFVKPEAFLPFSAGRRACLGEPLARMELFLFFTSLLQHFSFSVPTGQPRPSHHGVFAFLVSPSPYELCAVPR
Sequence of Cytochrome P450 2C19 (P33261 whole entry): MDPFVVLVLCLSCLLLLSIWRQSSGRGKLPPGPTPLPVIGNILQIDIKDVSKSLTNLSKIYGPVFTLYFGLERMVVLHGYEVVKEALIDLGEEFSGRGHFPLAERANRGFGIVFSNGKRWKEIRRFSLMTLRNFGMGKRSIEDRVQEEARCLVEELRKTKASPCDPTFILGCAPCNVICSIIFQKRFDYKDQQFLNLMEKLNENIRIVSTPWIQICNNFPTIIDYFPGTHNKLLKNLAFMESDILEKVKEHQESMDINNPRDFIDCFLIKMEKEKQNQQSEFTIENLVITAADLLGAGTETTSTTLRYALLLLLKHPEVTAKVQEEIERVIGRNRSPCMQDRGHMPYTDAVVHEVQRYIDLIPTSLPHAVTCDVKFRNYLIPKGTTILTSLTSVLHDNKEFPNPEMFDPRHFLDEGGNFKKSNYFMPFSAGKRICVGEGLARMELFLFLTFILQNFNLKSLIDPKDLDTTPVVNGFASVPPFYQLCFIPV
Sequence of Cytochrome P450 3A4 (P08684 whole entry): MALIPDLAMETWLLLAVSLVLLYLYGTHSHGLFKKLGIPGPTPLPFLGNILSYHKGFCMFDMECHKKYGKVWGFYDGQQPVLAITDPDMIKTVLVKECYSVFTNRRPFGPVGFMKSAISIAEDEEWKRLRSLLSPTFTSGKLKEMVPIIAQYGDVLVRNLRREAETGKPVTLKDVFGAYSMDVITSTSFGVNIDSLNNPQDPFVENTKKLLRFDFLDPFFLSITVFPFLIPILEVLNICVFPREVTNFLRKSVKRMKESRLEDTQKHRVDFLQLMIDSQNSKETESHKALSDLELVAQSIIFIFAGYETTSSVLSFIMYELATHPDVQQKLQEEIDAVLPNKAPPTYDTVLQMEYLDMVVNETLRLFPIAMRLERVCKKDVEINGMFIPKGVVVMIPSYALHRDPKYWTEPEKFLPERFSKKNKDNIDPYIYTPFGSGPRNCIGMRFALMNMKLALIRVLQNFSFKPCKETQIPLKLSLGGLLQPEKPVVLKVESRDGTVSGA

Structure (SMILES) | inhibition at 0.5 µM (CYP19 (aromatase)) [%] | inhibition at 2 µM (CYP1A2) [%] | IC50 (Cytochrome P450 2B6) [µM] | IC50 (Cytochrome P450 2C9) [µM] | fraction unbound at 1 h, 3 µM [1] | fraction unbound at 1 h, 3 µM [2] | half-life [3] [h] | Tmax [6] [h] | Cmax [8] [ng/mL] | AUC(0-inf) [10] [ng·h/mL] | IC50 (Cytochrome P450 1A2) [µM] | inhibition at 2.5 µM (CYP17) [%] | IC50 (Cytochrome P450 2C19) [µM] | IC50 (Aromatase) [µM] | further results
O=C1CCc2cc(-c3cccnc3)ccc2N1 | 21 | 50 | < 50 | 58.9 | 0.4 | 0.39 | 3.8 | 4 | 261 | 1750 | 1.95 | 41 | – | – | IC50 (Cytochrome P450 2D6; read-out: IC50): 171 µM; IC50 (Cytochrome P450 3A4): 127 µM; half-life [4]: 1.2 h; half-life [5]: 1.7 h; Tmax [7]: 1 h; Cmax [9]: 1540 ng/mL; AUC(0-inf) [11]: 4760 ng·h/mL; AUC(0-inf) [12]: 270 ng·h/mL; bioavailability [13]: 71%
O=C1CCc2cc(-c3cccnc3)ccc21 | – | 57 | < 50 | 123 | 0.76 | 0.78 | 2.4 | 4 | 300 | 3180 | 1.55 | – | 147 | – | –
COc1ccc2cc(-c3cccnc3)ccc2c1 | – | – | – | – | – | – | – | – | – | – | – | 72 | – | 0.6 | –
N#Cc1ccc2cc(-c3cccnc3)ccc2c1 | – | – | – | – | – | – | – | – | – | – | – | 73 | – | > 36 | –
CN1C(=O)CCc2cc(-c3cccnc3)ccc21 | 54 | 53 | < 50 | 125 | – | – | 2.3 | 6 | 86 | 659 | 1.79 | 8 | 122 | – | IC50 (Cytochrome P450 2D6): < 200 µM; IC50 [14]: 0.0026 µM; IC50 [15]: 0.742 µM
